Reference: ChEMBL document CHEMBL3046036, “Bioactivity of the fungal metabolite (8R,16R)-(-)-pyrenophorin on graminaceous plants” (J Agric Food Chem, 2005)

Columns and labels:
Type in all cases: functional
[1] = tested on: Triticum aestivum; assay: Inhibition of Triticum aestivum (wheat) seed germination at 20 degC at 320 uM (reference value: 0%)
[2] = tested on: Triticum aestivum; assay: Inhibition of Triticum aestivum (wheat) seed germination at 20 degC at 200 uM (reference value: 0%)
[3] = tested on: Triticum aestivum; assay: Inhibition of Triticum aestivum (wheat) seed germination at 20 degC at 100 uM (reference value: 0%)
[4] = tested on: Triticum aestivum; assay: Inhibition of Triticum aestivum (wheat) seed germination at 20 degC at 90 uM (reference value: 0%)
[5] = tested on: Triticum aestivum; assay: Inhibition of Triticum aestivum (wheat) seed germination at 20 degC at 80 uM (reference value: 0%)
[6] = tested on: Triticum aestivum; assay: Inhibition of Triticum aestivum (wheat) seed germination at 20 degC at 70 uM (reference value: 0%)
[7] = tested on: Triticum aestivum; assay: Inhibition of Triticum aestivum (wheat) seed germination at 20 degC at 60 uM (reference value: 0%)
[8] = tested on: Triticum aestivum; assay: Inhibition of Triticum aestivum (wheat) seed germination at 20 degC at 10 to 50 uM (reference value: 0%)
[9] = tested on: Avena sativa; assay: Inhibition of Avena sativa seed germination at 20 degC at 640 uM (reference value: 0%)
[10] = tested on: Avena sativa; assay: Inhibition of Avena sativa seed germination at 20 degC at 320 uM (reference value: 0%)
[11] = tested on: Avena sativa; assay: Inhibition of Avena sativa seed germination at 20 degC at 200 uM (reference value: 0%)
[12] = tested on: Avena sativa; assay: Inhibition of Avena sativa seed germination at 20 degC at 100 uM (reference value: 0%)
[13] = tested on: Avena sativa; assay: Inhibition of Avena sativa seed germination at 20 degC at 80 uM (reference value: 0%)
[14] = tested on: Avena sativa; assay: Inhibition of Avena sativa seed germination at 20 degC at 90 uM (reference value: 0%)
[15] = tested on: Avena sativa; assay: Inhibition of Avena sativa seed germination at 20 degC at 70 uM (reference value: 0%)
[16] = tested on: Avena sativa; assay: Inhibition of Avena sativa seed germination at 20 degC at 60 uM (reference value: 0%)
[17] = tested on: Avena sativa; assay: Inhibition of Avena sativa seed germination at 20 degC at 10 to 50 uM (reference value: 0%)
[18] = tested on: Avena fatua; assay: Inhibition of Avena fatua seed germination at 20 degC at 640 uM (reference value: 0%)
[19] = tested on: Avena fatua; assay: Inhibition of Avena fatua seed germination at 20 degC at 320 uM (reference value: 0%)
[20] = tested on: Avena fatua; assay: Inhibition of Avena fatua seed germination at 20 degC at 200 uM (reference value: 0%)
[21] = tested on: Avena fatua; assay: Inhibition of Avena fatua seed germination at 20 degC at 100 uM (reference value: 0%)
[22] = tested on: Avena fatua; assay: Inhibition of Avena fatua seed germination at 20 degC at 90 uM (reference value: 0%)
[23] = tested on: Avena fatua; assay: Inhibition of Avena fatua seed germination at 20 degC at 80 uM (reference value: 0%)
[24] = tested on: Avena fatua; assay: Inhibition of Avena fatua seed germination at 20 degC at 60 uM (reference value: 0%)
[25] = tested on: Avena fatua; assay: Inhibition of Avena fatua seed germination at 20 degC at 70 uM (reference value: 0%)
[26] = tested on: Avena fatua; assay: Inhibition of Avena fatua seed germination at 20 degC at 10 to 50 uM (reference value: 0%)
[27] = tested on: Avena sterilis; assay: Inhibition of Avena sterilis seed germination at 20 degC at 640 uM (reference value: 0%)
[28] = tested on: Avena sterilis; assay: Inhibition of Avena sterilis seed germination at 20 degC at 320 uM (reference value: 0%)
[29] = tested on: Avena sterilis; assay: Inhibition of Avena sterilis seed germination at 20 degC at 200 uM (reference value: 0%)
[30] = tested on: Avena sterilis; assay: Inhibition of Avena sterilis seed germination at 20 degC at 100 uM (reference value: 0%)
[31] = tested on: Avena sterilis; assay: Inhibition of Avena sterilis seed germination at 20 degC at 80 uM (reference value: 0%)
[32] = tested on: Avena sterilis; assay: Inhibition of Avena sterilis seed germination at 20 degC at 90 uM (reference value: 0%)
[33] = tested on: Avena sterilis; assay: Inhibition of Avena sterilis seed germination at 20 degC at 70 uM (reference value: 0%)
[34] = tested on: Avena sterilis; assay: Inhibition of Avena sterilis seed germination at 20 degC at 60 uM (reference value: 0%)
[35] = tested on: Avena sterilis; assay: Inhibition of Avena sterilis seed germination at 20 degC at 10 to 50 uM (reference value: 0%)

Q: What does the source list for `C[C@@H]1CCC(=O)/C=C/C(=O)O[C@H](C)CCC(=O)/C=C/C(=O)O1` [(8R,16R)-(-)-pyrenophorin]?
A: inhibition at 320 µM [1]: 98%; inhibition at 200 µM [2]: 90.6%; inhibition at 100 µM [3]: 90.8%; inhibition at 90 µM [4]: 86.2%; inhibition at 80 µM [5]: 81.4%; inhibition at 70 µM [6]: 67.8%; inhibition at 60 µM [7]: 12.4%; inhibition (INH) [8]: 0%; inhibition at 640 µM [9]: 100%; inhibition at 320 µM [10]: 100%; inhibition at 200 µM [11]: 95.6%; inhibition at 100 µM [12]: 93.5%; inhibition at 80 µM [13]: 82.6%; inhibition at 90 µM [14]: 89%; inhibition at 70 µM [15]: 71.5%; inhibition at 60 µM [16]: 14.5%; inhibition (INH) [17]: 0%; inhibition at 640 µM [18]: 100%; inhibition at 320 µM [19]: 100%; inhibition at 200 µM [20]: 97.9%; inhibition at 100 µM [21]: 95.3%; inhibition at 90 µM [22]: 87.8%; inhibition at 80 µM [23]: 82%; inhibition at 60 µM [24]: 12.5%; inhibition at 70 µM [25]: 69.9%; inhibition (INH) [26]: 0%; inhibition at 640 µM [27]: 100%; inhibition at 320 µM [28]: 100%; inhibition at 200 µM [29]: 100%; inhibition at 100 µM [30]: 96.8%; inhibition at 80 µM [31]: 84.4%; inhibition at 90 µM [32]: 89.6%; inhibition at 70 µM [33]: 68.5%; inhibition at 60 µM [34]: 15%; inhibition (INH) [35]: 0%
